Drawing on ChEMBL document CHEMBL1134520, “Potent somatostatin undecapeptide agonists selective for somatostatin receptor 1 (sst1)” (J Med Chem, 2001), this text covers IC50 for three molecules.

Assay [1] deals with Somatostatin receptor type 4 (Homo sapiens, UniProt P31391). Nature of the assay: Tested for ability to bind to 20 uM thick cryostat sections of a membrane pellet of cells transfected with human cloned somatostatin (sst) receptor subtype 4.
In assay [2] the target is Somatostatin receptor type 1 (Homo sapiens, UniProt P30872). Nature of the assay: Tested for ability to bind to 20 uM thick cryostat sections of a membrane pellet of cells transfected with human cloned somatostatin (sst) receptor subtype 1.
Assay [3] concerns the target Somatostatin receptor type 3 (Homo sapiens, UniProt P32745). Nature of the assay: Tested for ability to bind to 20 uM thick cryostat sections of a membrane pellet of cells transfected with human cloned somatostatin (sst) receptor subtype 3.
The target of assay [4] is Somatostatin receptor type 2 (Homo sapiens, UniProt P30874). Nature of the assay: Tested for ability to bind to 20 uM thick cryostat sections of a membrane pellet of cells transfected with human cloned somatostatin (sst) receptor subtype 2.
In assay [5] the target is Somatostatin receptor type 5 (Homo sapiens, UniProt P35346). Nature of the assay: Tested for ability to bind to 20 uM thick cryostat sections of a membrane pellet of cells transfected with human cloned somatostatin (sst) receptor subtype 5.

Bridge positions count the residues as written; N and C are the ends. Square brackets hold non-standard residues; d marks the D form. Peptide text beside a SMILES is read from it. Phe(4-NO2) = N[C@@H](Cc1ccc([N+](=O)[O-])cc1)C(=O)O; Phe(4-CH2NHiPr) = CC(C)NCc1ccc(C[C@H](N)C(=O)O)cc1; d2Nal = N[C@H](Cc1ccc2ccccc2c1)C(=O)O

Somatostatin receptor type 5, sequence (P35346 whole entry): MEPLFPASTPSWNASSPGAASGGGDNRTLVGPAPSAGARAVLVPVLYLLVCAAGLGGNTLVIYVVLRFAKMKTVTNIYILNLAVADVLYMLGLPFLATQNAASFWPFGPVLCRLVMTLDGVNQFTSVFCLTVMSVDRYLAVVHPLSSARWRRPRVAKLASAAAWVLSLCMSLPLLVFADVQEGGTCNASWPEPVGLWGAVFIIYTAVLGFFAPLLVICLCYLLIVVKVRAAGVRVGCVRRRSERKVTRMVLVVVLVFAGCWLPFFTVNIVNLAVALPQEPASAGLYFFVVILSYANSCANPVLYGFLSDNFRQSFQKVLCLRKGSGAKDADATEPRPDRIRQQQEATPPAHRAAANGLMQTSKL
Somatostatin receptor type 3, sequence (P32745 whole entry): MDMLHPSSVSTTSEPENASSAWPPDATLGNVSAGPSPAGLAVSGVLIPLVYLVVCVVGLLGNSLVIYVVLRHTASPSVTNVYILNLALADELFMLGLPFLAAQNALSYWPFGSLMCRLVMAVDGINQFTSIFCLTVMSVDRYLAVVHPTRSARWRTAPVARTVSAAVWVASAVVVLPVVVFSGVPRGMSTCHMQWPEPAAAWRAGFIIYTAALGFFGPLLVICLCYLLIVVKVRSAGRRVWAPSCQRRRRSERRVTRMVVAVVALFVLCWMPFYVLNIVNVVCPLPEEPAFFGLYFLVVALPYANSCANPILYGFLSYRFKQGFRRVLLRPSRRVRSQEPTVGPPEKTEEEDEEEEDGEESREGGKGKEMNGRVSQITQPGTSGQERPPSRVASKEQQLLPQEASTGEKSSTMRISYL
Somatostatin receptor type 1, sequence (P30872 whole entry): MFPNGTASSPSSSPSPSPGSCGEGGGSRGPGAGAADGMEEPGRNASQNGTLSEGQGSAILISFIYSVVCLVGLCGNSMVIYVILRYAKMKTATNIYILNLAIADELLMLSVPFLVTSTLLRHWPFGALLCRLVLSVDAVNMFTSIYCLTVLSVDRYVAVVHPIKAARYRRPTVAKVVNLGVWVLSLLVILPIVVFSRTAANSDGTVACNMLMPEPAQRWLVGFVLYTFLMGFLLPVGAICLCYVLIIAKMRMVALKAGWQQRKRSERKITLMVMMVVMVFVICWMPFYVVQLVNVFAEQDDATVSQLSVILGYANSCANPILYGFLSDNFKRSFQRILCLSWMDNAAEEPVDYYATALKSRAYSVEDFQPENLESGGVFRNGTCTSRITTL
Somatostatin receptor type 4, sequence (P31391 whole entry): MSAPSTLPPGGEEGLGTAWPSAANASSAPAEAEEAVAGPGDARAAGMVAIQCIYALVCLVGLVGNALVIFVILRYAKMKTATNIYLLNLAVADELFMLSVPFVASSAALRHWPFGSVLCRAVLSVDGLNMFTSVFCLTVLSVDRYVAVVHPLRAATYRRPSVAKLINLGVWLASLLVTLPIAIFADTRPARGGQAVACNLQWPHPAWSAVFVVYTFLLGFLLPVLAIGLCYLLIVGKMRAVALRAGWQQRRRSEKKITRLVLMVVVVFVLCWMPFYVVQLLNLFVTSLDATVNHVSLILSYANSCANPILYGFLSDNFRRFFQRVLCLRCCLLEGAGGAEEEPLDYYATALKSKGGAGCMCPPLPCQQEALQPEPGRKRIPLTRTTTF
Somatostatin receptor type 2, sequence (P30874 whole entry): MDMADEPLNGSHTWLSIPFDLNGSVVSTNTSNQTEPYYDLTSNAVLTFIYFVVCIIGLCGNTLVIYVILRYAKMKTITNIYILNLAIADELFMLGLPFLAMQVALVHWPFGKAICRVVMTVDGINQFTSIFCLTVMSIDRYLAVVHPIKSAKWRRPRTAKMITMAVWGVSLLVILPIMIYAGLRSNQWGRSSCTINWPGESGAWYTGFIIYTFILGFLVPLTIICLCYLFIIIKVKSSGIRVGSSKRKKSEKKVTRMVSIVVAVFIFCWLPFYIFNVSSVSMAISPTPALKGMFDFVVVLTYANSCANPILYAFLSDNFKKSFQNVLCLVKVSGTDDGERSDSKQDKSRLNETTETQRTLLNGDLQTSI

For `CC(C)NCc1ccc(C[C@@H]2NC(=O)[C@@H](Cc3ccc4ccccc4c3)NC(=O)[C@H](Cc3ccc([N+](=O)[O-])cc3)NC(=O)[C@H](Cc3ccccc3)NC(=O)[C@H](CCCCN)NC(=O)[C@@H](N)CSSC[C@@H](C(=O)O)NC(=O)[C@H](CO)NC(=O)[C@H]([C@@H](C)O)NC(=O)[C@H](Cc3ccccc3)NC(=O)[C@H]([C@@H](C)O)NC2=O)cc1` (H-CKF[Phe(4-NO2)][d2Nal][Phe(4-CH2NHiPr)]TFTSC-OH; disulfide 1-11), the IC50 in assay [1] was over 1 µM; in assay [2], 0.035 µM; in assay [3], 0.975 µM; in assay [4] it was over 1 µM; in assay [5] it was over 1 µM.

As for `CC(C)NCc1ccc(C[C@@H]2NC(=O)[C@@H](Cc3c[nH]c4ccccc34)NC(=O)[C@H](Cc3ccccc3)NC(=O)[C@H](Cc3ccccc3)NC(=O)[C@H](CC(N)=O)NC(=O)[C@H](CCCCN)NC(=O)[C@@H](N)CSSC[C@@H](C(=O)O)NC(=O)[C@H](CO)NC(=O)[C@H]([C@@H](C)O)NC(=O)[C@H](Cc3ccccc3)NC(=O)[C@H]([C@@H](C)O)NC2=O)cc1` (H-CKNFF[dW][Phe(4-CH2NHiPr)]TFTSC-OH; disulfide 1-12), the IC50 in assay [1] was over 10 µM; in assay [2], 0.443 µM; in assay [3], over 10 µM; in assay [4], over 1 µM; in assay [5] it was over 10 µM.

With `CC(C)NCc1ccc(C[C@@H]2NC(=O)[C@@H](Cc3ccc4ccccc4c3)NC(=O)[C@H](Cc3ccccc3)NC(=O)[C@H](Cc3ccccc3)NC(=O)[C@H](CCCCN)NC(=O)[C@H](NC(=O)CCc3ccc(O)cc3)CSSC[C@@H](C(=O)O)NC(=O)[C@H](CO)NC(=O)[C@H]([C@@H](C)O)NC(=O)[C@H](Cc3ccccc3)NC(=O)[C@@H]([C@@H](C)O)NC2=O)cc1` (stereo in doubt; 31), the concentration for half-maximal inhibition (IC50) in assay [1] is over 1 µM; in assay [2] it was 0.975 µM; in assay [3] it was over 1 µM; in assay [4] it was over 10 µM; in assay [5], over 10 µM.
